Assay results reported in the supplement of paper PMC10331698.
± gives the standard deviation of the averaged measurements.

Tests used:
Assay in all cases: level (log10 ratio to DMSO vehicle control); higher = higher biomarker level / cell amount than vehicle control
[1] = compound: C=CC(=O)OCC(F)(F)C(F)(F)C(F)(F)C(F)(F)C(F)(F)C(F)(F)C(F)(F)C(F)F [1H,1H,9H-Perfluorononyl acrylate]; conditions: in DMSO
Protocol: (§1)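 BioMAP Diversity Plus panel of 12 human primary cell co-culture systems (3C, 4H, LPS, SAg, BT, BF4T, BE3C, CASM3C, HDF3CGF, KF3CT, MyoF, Mphg). Compounds were added 1 h before stimulation and left for 24 h (MyoF 48 h; BT 72 h for soluble read-outs or 6 d for IgG). Biomarkers were read by ELISA, cytotoxicity by SRB, PBMC viability and proliferation by Alamar Blue. Each well value was divided by the mean of 8 DMSO control wells on the same plate and log10 transformed; duplicate blinded samples were tested at 4 concentrations.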

[2] = compound: OCCCC(F)(F)C(F)(F)C(F)(F)C(F)(F)C(F)(F)C(F)(F)C(F)(F)C(F)(F)F [3-(Perfluorooctyl)propanol]; conditions: 6700 nM; in DMSO
Protocol: as §1

[3] = compound: OCC(F)(F)C(F)(F)C(F)(F)C(F)(F)C(F)(F)C(F)(F)F [6:1 Fluorotelomer alcohol]; conditions: in DMSO
Protocol: as §1

[4] = compound: FC(F)(F)C(F)(F)C(F)(F)C(F)(F)CCI [1H,1H,2H,2H-Perfluorohexyl iodide]; conditions: in DMSO
Protocol: as §1

[5] = compound: O=P(O)(O)CCC(F)(F)C(F)(F)C(F)(F)C(F)(F)C(F)(F)C(F)(F)F [2-(Perfluorohexyl)ethylphosphonic acid]; conditions: in DMSO
Protocol: as §1

[6] = compound: C=C(C)C(=O)OCC(F)(F)C(F)(F)C(F)(F)F [2,2,3,3,4,4,4-Heptafluorobutyl methacrylate]; conditions: in DMSO
Protocol: as §1

[7] = compound: FC(F)(F)COC(OCC(F)(F)F)OCC(F)(F)F [tris(Trifluoroethoxy)methane]; conditions: in DMSO
Protocol: as §1

Test System | level (log10) ([1]; 6700 nM) | level (log10) ([1]; 20000 nM) | level (log10) ([1]; 60000 nM) | level (log10) [2] | level (log10) ([3]; 6700 nM) | level (log10) ([3]; 20000 nM) | level (log10) ([3]; 60000 nM) | level (log10) ([4]; 6700 nM) | level (log10) ([4]; 20000 nM) | level (log10) ([4]; 60000 nM) | level (log10) ([5]; 6700 nM) | level (log10) ([5]; 20000 nM) | level (log10) ([5]; 60000 nM) | level (log10) ([6]; 6700 nM) | level (log10) ([6]; 20000 nM) | level (log10) ([6]; 60000 nM) | level (log10) ([7]; 6700 nM) | level (log10) ([7]; 20000 nM) | level (log10) ([7]; 60000 nM)
lMphg:CD40 | -0.0205 ± 0.005 | -0.022 ± 0.018 | -0.032 ± 0.021 | -0.037 ± 0.018 | -0.0065 ± 0.026 | -0.0095 ± 0.019 | -0.0235 ± 0.022 | -0.017 ± 0.014 | -0.0245 ± 0.029 | -0.018 ± 0.025 | -0.0155 ± 0.0021 | -0.0165 ± 0.00071 | -0.012 ± 0.041 | 0.0055 ± 0.011 | -0.005 ± 0.016 | -0.0195 ± 0.0078 | -0.0235 ± 0.044 | -0.0135 ± 0.012 | -0.0265 ± 0.032
CASM3C:HLA-DR | -0.0945 ± 0.044 | -0.04 ± 0.071 | 0.021 ± 0.033 | -0.0215 ± 0.005 | 0.0095 ± 0.0064 | 0.0135 ± 0.0021 | -0.0195 ± 0.035 | -0.012 ± 0.0085 | -0.017 ± 0.02 | 0.0265 ± 0.081 | 0.0045 ± 0.015 | 0.015 ± 0.023 | 0.0345 ± 0.046 | -0.0035 ± 0.0078 | 0.0125 ± 0.0021 | 0.0135 ± 0.015 | -0.0115 ± 0.0064 | -0.007 | -0.0135 ± 0.023
KF3CT:SRB | 0.003 ± 0.0014 | -0.002 ± 0.0085 | 0.0045 ± 0.018 | -0.053 | -0.0035 ± 0.0064 | -0.0025 ± 0.0035 | -0.004 ± 0.0028 | -0.013 ± 0.0099 | -0.01 ± 0.013 | 0.0035 ± 0.015 | -0.0015 ± 0.0035 | -0.011 ± 0.0028 | -0.007 ± 0.013 | 0.0025 ± 0.0021 | 0.0045 ± 0.011 | -0.0075 ± 0.00071 | -0.0125 ± 0.00071 | -0.0015 ± 0.0035 | -0.0035 ± 0.012
HDF3CGF:CD106/VCAM-1 | -0.0565 ± 0.079 | -0.29 ± 0.029 | -0.453 ± 0.14 | -0.244 ± 0.013 | -0.0135 ± 0.013 | 0.004 ± 0.044 | -0.681 ± 0.28 | -0.043 ± 0.082 | -0.0425 ± 0.026 | -0.168 ± 0.022 | 0.041 ± 0.013 | 0.0625 ± 0.013 | 0 ± 0.0057 | -0.023 ± 0.0042 | -0.017 ± 0.03 | -0.07 ± 0.028 | 0.0315 ± 0.018 | -0.0275 ± 0.021 | -0.0325 ± 0.059
HDF3CGF:CXCL10/IP-10 | -0.0105 ± 0.0064 | -0.041 ± 0.048 | -0.15 ± 0.096 | -0.275 ± 0.057 | -0.002 ± 0.0014 | -0.017 ± 0.044 | -0.401 ± 0.061 | 0.0045 ± 0.035 | -0.0155 ± 0.0064 | -0.069 ± 0.02 | 0.014 ± 0.0028 | 0.0505 ± 0.0078 | 0.0525 ± 0.037 | -0.017 ± 0.0071 | -0.021 ± 0.0071 | -0.024 ± 0.016 | 0.0005 ± 0.0092 | -0.002 ± 0.0071 | -0.015 ± 0.0057
CASM3C:CXCL8/IL-8 | 0.0175 ± 0.021 | 0.025 ± 0.0028 | 0.0415 ± 0.03 | -0.008 ± 0.0099 | 0.0005 ± 0.015 | 0.004 ± 0.018 | 0 ± 0.0014 | 0.0105 ± 0.022 | 0.0145 ± 0.028 | 0.0255 ± 0.06 | -0.0185 ± 0.013 | -0.0015 ± 0.0021 | 0.0145 ± 0.005 | 0.0035 ± 0.012 | -0.0085 ± 0.032 | 0.012 ± 0.024 | -0.008 ± 0.0042 | -0.01 ± 0.016 | 0.0055 ± 0.03
HDF3CGF:CXCL8/IL-8 | -0.009 ± 0.0042 | 0.0075 ± 0.021 | 0.0085 ± 0.0035 | -0.0145 ± 0.0092 | 0.0005 ± 0.0092 | 0.001 ± 0.013 | -0.046 ± 0.052 | 0.003 ± 0.0057 | -0.0025 ± 0.0035 | 0.0015 ± 0.011 | -0.005 ± 0.0042 | -0.0125 ± 0.00071 | 0.012 ± 0.0071 | 0.0005 ± 0.0021 | -0.0045 ± 0.0092 | 0.006 ± 0.0028 | -0.003 ± 0.0028 | -0.0005 ± 0.005 | 0.002 ± 0.0099
MyoF:Collagen IV | 0.02 ± 0.0014 | 0.015 ± 0.024 | 0.0035 ± 0.021 | -0.0385 ± 0.029 | -0.013 ± 0.0014 | -0.0335 ± 0.016 | 0.012 ± 0.02 | 0.011 ± 0.031 | 0.024 ± 0.017 | 0.021 ± 0.05 | -0.038 ± 0.0071 | -0.019 ± 0.03 | -0.0405 ± 0.0021 | -0.0185 ± 0.019 | 0.004 ± 0.065 | 0.014 ± 0.075 | -0.026 ± 0.0042 | -0.027 ± 0.02 | -0.0075 ± 0.03
BE3C:Keratin 8/18 | -0.037 ± 0.011 | -0.0165 ± 0.005 | -0.0355 ± 0.04 | 0.0085 ± 0.033 | 0.0055 ± 0.036 | -0.0035 ± 0.057 | -0.0125 ± 0.071 | 0 ± 0.0099 | -0.0095 ± 0.013 | -0.006 ± 0.0014 | -0.012 ± 0.0071 | -0.0175 ± 0.0021 | 0.0115 ± 0.03 | -0.0165 ± 0.056 | -0.002 ± 0.05 | -0.003 ± 0.03 | -0.0035 ± 0.019 | -0.0215 ± 0.021 | 0.01 ± 0.0057
MyoF:SRB | -0.0055 ± 0.0078 | -0.016 ± 0.0042 | -0.0725 ± 0.019 | -0.017 ± 0.0014 | 0.003 ± 0.02 | 0.0015 ± 0.016 | -0.089 ± 0.13 | 0.008 ± 0.0042 | 0.0055 ± 0.012 | 0.004 ± 0.018 | -0.0075 ± 0.011 | -0.004 ± 0.0071 | -0.007 ± 0.0057 | -0.005 ± 0.016 | -0.0005 ± 0.0021 | 0.0035 ± 0.011 | -0.0045 ± 0.0035 | -0.001 ± 0.0014 | 0.005 ± 0.0042
HDF3CGF:PAI-I | 0.0785 ± 0.076 | 0.025 ± 0.04 | 0.0165 ± 0.1 | -0.391 ± 0.07 | 0.006 ± 0.018 | 0.0105 ± 0.026 | -0.103 ± 0.18 | 0.002 ± 0.028 | 0.0045 ± 0.0035 | -0.0105 ± 0.044 | -0.027 ± 0.023 | -0.027 ± 0.0014 | -0.0925 ± 0.021 | -0.045 ± 0.011 | -0.018 ± 0.1 | 0.0135 ± 0.0035 | -0.0115 ± 0.0021 | -0.025 ± 0.023 | 0.0175 ± 0.018
CASM3C:CXCL9/MIG | -0.014 ± 0.0042 | -0.0045 ± 0.028 | -0.0035 ± 0.03 | -0.042 ± 0.0028 | -0.003 ± 0.0014 | -0.0085 ± 0.0021 | -0.0305 ± 0.046 | 0.016 ± 0.028 | 0.022 ± 0.03 | 0.0575 ± 0.09 | 0.0095 ± 0.025 | 0.005 ± 0.033 | 0.0335 ± 0.066 | -0.001 ± 0.011 | 0.005 ± 0.0099 | 0.0195 ± 0.0021 | 0.0015 ± 0.012 | -0.0115 ± 0.0064 | -0.0145 ± 0.005
BE3C:tPA | 0.0175 ± 0.018 | 0.0315 ± 0.0035 | 0.026 ± 0.0099 | 0.0365 ± 0.012 | 0.0055 ± 0.012 | -0.0145 ± 0.019 | -0.0075 ± 0.0021 | -0.001 ± 0.0028 | 0.0175 ± 0.019 | 0.051 ± 0.014 | -0.0765 ± 0.022 | -0.0835 ± 0.0078 | -0.0615 ± 0.086 | -0.0095 ± 0.029 | -0.016 ± 0.016 | -0.021 ± 0.027 | -0.0075 ± 0.013 | -0.028 ± 0.024 | -0.0125 ± 0.021
3C:CD106/VCAM-1 | -0.03 | -0.022 ± 0.0057 | -0.042 ± 0.02 | -0.021 | 0.006 ± 0.0071 | 0.013 ± 0.013 | 0.011 ± 0.021 | 0.0045 ± 0.026 | -0.015 ± 0.0014 | -0.0145 ± 0.021 | -0.012 ± 0.03 | -0.004 ± 0.025 | 0.0055 ± 0.061 | 0.0145 ± 0.029 | 0.007 ± 0.016 | 0.017 ± 0.011 | -0.002 ± 0.016 | -0.0045 ± 0.019 | 0.0095 ± 0.0078
CASM3C:CD142/Tissue Factor | 0.0345 ± 0.026 | -0.003 ± 0.061 | -0.016 ± 0.0014 | -0.007 ± 0.054 | 0.009 ± 0.017 | 0.0035 ± 0.0092 | -0.0315 ± 0.015 | -0.019 ± 0.034 | -0.0065 ± 0.0078 | 0.0235 ± 0.035 | -0.0165 ± 0.0064 | -0.007 ± 0.014 | -0.033 ± 0.0071 | -0.006 ± 0.021 | 0 ± 0.038 | 0.0045 ± 0.022 | 0.0185 ± 0.047 | -0.011 ± 0.0085 | -0.0275 ± 0.016
